Reference: paper doi:10.1101/2023.03.03.530471v2 (bioRxiv, 2023)

Assays:
[1] = biological target: recombinant full length PICK1 (Rattus norvegicus, UniProt Q9EP80); assay: SEC of recombinant PICK1 incubated with mPD5; format: binding; details: PICK1 40 µM + mPD5 10 µM (4:1), Superdex200 Increase 10/300; PICK1 alone 10.9 mL
[2] = Solubility by visual inspection; format: physicochemical; details: 10 mM PBS, molar equivalent of 250 mg/mL
[3] = tested on: naive mice; assay: Barnes maze, spatial learning and memory; format: in vivo, mouse

Chain of recombinant full length PICK1 (Q9EP80 whole entry): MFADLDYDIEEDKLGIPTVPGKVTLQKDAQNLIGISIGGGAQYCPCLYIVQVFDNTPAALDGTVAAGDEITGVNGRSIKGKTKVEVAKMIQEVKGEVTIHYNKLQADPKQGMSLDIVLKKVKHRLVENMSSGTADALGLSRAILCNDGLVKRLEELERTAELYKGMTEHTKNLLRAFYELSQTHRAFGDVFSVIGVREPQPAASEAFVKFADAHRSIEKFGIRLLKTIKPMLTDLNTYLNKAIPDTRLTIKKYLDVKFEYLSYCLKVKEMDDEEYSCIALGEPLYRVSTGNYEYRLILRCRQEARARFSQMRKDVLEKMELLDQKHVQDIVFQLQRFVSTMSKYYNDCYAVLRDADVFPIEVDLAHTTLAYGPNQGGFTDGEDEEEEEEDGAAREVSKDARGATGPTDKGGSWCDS

- peak elution volume of PICK1 in presence of mPD5 [1]: two peaks at 8 mL and 9 mL
- solubility in PBS [2]: ≥ 130 mM
- total distance moved, probe test day five ([3]; s.c. 10 µmol/kg 60 min before maze): no difference
- total distance moved, following reversal learning ([3]; s.c. 10 µmol/kg, probe test day nine): no difference was observed
Compound: CCCCCCCCCCCCCC(=O)N(CCOCCOCCC(=O)N[C@@H](Cc1c[nH]cn1)C(=O)N[C@@H](Cc1c[nH]c2ccccc12)C(=O)N[C@@H](CC(C)C)C(=O)N[C@@H](CCCCN)C(=O)N[C@H](C(=O)O)C(C)C)CCOCCOCCC(=O)N[C@@H](Cc1c[nH]cn1)C(=O)N[C@@H](Cc1c[nH]c2ccccc12)C(=O)N[C@@H](CC(C)C)C(=O)N[C@@H](CCCCN)C(=O)N[C@H](C(=O)O)C(C)C [mPD5, myristoyl-NPEG4-(HWLKV)2]
